Data from PubChem BioAssay (NCI).
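These data come from cells grown in 96-well plates and exposed to compound for 48 hours at five concentrations. GI50: concentration for 50% inhibition of growth. TGI: concentration producing complete growth inhibition.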

Columns and labels:
Assay in all cases: DTP human tumour cell line panel, 48 h
SF-539 CNS = tested on: SF-539 CNS
COLO 205 colon = tested on: COLO 205 colon
MDA-MB-435 = tested on: MDA-MB-435
KM12 colon = tested on: KM12 colon
HCT-15 colon = tested on: HCT-15 colon
A498 renal = tested on: A498 renal
A549 NSCLC = tested on: A549 NSCLC
ACHN renal = tested on: ACHN renal
BT-549 breast = tested on: BT-549 breast
RXF 393 renal = tested on: RXF 393 renal
SNB-19 CNS = tested on: SNB-19 CNS
786-0 renal = tested on: 786-0 renal
OVCAR-8 ovarian = tested on: OVCAR-8 ovarian
OVCAR-3 ovarian = tested on: OVCAR-3 ovarian
U251 CNS = tested on: U251 CNS
HOP-92 NSCLC = tested on: HOP-92 NSCLC
MALME-3M melanoma = tested on: MALME-3M melanoma
SK-MEL-2 melanoma = tested on: SK-MEL-2 melanoma
HS 578T breast = tested on: HS 578T breast
NCI-H460 lung = tested on: NCI-H460 lung
OVCAR-5 ovarian = tested on: OVCAR-5 ovarian
SNB-75 CNS = tested on: SNB-75 CNS
RPMI-8226 leukemia = tested on: RPMI-8226 leukemia
HCT-116 colon = tested on: HCT-116 colon
LOX IMVI melanoma = tested on: LOX IMVI melanoma
NCI-H226 lung = tested on: NCI-H226 lung
CCRF-CEM leukemia = tested on: CCRF-CEM leukemia
SN12C renal = tested on: SN12C renal
MOLT-4 leukemia = tested on: MOLT-4 leukemia
PC-3 prostate = tested on: PC-3 prostate
DU-145 prostate = tested on: DU-145 prostate
MCF7 breast = tested on: MCF7 breast
SW-620 colon = tested on: SW-620 colon
HT29 colon = tested on: HT29 colon
M14 melanoma = tested on: M14 melanoma
HL-60(TB) leukemia = tested on: HL-60(TB) leukemia
CAKI-1 renal = tested on: CAKI-1 renal
HOP-62 NSCLC = tested on: HOP-62 NSCLC
EKVX NSCLC = tested on: EKVX NSCLC
NCI-H23 lung = tested on: NCI-H23 lung
OVCAR-4 ovarian = tested on: OVCAR-4 ovarian
T-47D breast = tested on: T-47D breast
SK-MEL-5 melanoma = tested on: SK-MEL-5 melanoma
SK-MEL-28 melanoma = tested on: SK-MEL-28 melanoma
SK-OV-3 ovarian = tested on: SK-OV-3 ovarian
TK-10 renal = tested on: TK-10 renal
IGROV1 ovarian = tested on: IGROV1 ovarian
UO-31 renal = tested on: UO-31 renal
UACC-257 melanoma = tested on: UACC-257 melanoma
UACC-62 melanoma = tested on: UACC-62 melanoma
SR leukemia = tested on: SR leukemia
MDA-MB-231 breast = tested on: MDA-MB-231 breast
HCC-2998 colon = tested on: HCC-2998 colon
SF-268 CNS = tested on: SF-268 CNS

`COc1ccc(/C=C/C(=O)Nc2cc(/C=C\c3cc(OC)c(OC)c(OC)c3)cc(OC)c2OC)cc1OC` was tested, and the GI50 (SF-539 CNS) was 3.7 µM, the TGI (SF-539 CNS) was > 100 µM and the GI50 (COLO 205 colon) was 2.65 µM. It also gave a TGI (COLO 205 colon) of 6.55 µM, a GI50 (MDA-MB-435) of 1.29 µM and a TGI (MDA-MB-435) of 4.52 µM. For the same molecule, the GI50 (KM12 colon) was 4.22 µM, the TGI (KM12 colon) was > 100 µM and the GI50 (HCT-15 colon) was 3.58 µM. The TGI (HCT-15 colon) was > 100 µM, the GI50 (A498 renal) was 4.92 µM and the TGI (A498 renal) was > 100 µM. For the same molecule, the GI50 (A549 NSCLC) was 3.69 µM, the TGI (A549 NSCLC) was > 100 µM and the GI50 (ACHN renal) was 4.68 µM. The TGI (ACHN renal) was > 100 µM, the GI50 (BT-549 breast) was 3.36 µM and the TGI (BT-549 breast) was 57.8 µM. The GI50 (RXF 393 renal) was 2.23 µM, the TGI (RXF 393 renal) was 6.42 µM and the GI50 (SNB-19 CNS) was 4.3 µM. The TGI (SNB-19 CNS) was > 100 µM, the GI50 (786-0 renal) was 2.98 µM and the TGI (786-0 renal) was > 100 µM. For the same molecule, the GI50 (OVCAR-8 ovarian) was 3.44 µM, the TGI (OVCAR-8 ovarian) was > 100 µM and the GI50 (OVCAR-3 ovarian) was 5.53 µM. The TGI (OVCAR-3 ovarian) was > 100 µM, the GI50 (U251 CNS) was 4.22 µM and the TGI (U251 CNS) was > 100 µM. For the same molecule, the GI50 (HOP-92 NSCLC) was > 100 µM, the TGI (HOP-92 NSCLC) was > 100 µM and the GI50 (MALME-3M melanoma) was 2.8 µM. For the same molecule, the TGI (MALME-3M melanoma) was > 100 µM, the GI50 (SK-MEL-2 melanoma) was 3.05 µM and the TGI (SK-MEL-2 melanoma) was 9.4 µM. The GI50 (HS 578T breast) was 8.92 µM, the TGI (HS 578T breast) was > 100 µM and the GI50 (NCI-H460 lung) was 3.37 µM. The TGI (NCI-H460 lung) was > 100 µM, the GI50 (OVCAR-5 ovarian) was 6.49 µM and the TGI (OVCAR-5 ovarian) was > 100 µM. The GI50 (SNB-75 CNS) was 1.68 µM, the TGI (SNB-75 CNS) was 7.46 µM and the GI50 (RPMI-8226 leukemia) was 2.14 µM. For the same molecule, the TGI (RPMI-8226 leukemia) was > 100 µM, the GI50 (HCT-116 colon) was 3.71 µM and the TGI (HCT-116 colon) was > 100 µM. The GI50 (LOX IMVI melanoma) was 4 µM, the TGI (LOX IMVI melanoma) was > 100 µM and the GI50 (NCI-H226 lung) was 3.62 µM. For the same molecule, the TGI (NCI-H226 lung) was > 100 µM, the GI50 (CCRF-CEM leukemia) was 2.48 µM and the TGI (CCRF-CEM leukemia) was > 100 µM. The GI50 (SN12C renal) was 3.96 µM, the TGI (SN12C renal) was > 100 µM and the GI50 (MOLT-4 leukemia) was 3.35 µM. The TGI (MOLT-4 leukemia) was > 100 µM, the GI50 (PC-3 prostate) was 3.06 µM and the TGI (PC-3 prostate) was > 100 µM. For the same molecule, the GI50 (DU-145 prostate) was 26.6 µM, the TGI (DU-145 prostate) was > 100 µM and the GI50 (MCF7 breast) was 2.44 µM. The TGI (MCF7 breast) was > 100 µM, the GI50 (SW-620 colon) was 5.05 µM and the TGI (SW-620 colon) was > 100 µM. The GI50 (HT29 colon) was 3.64 µM, the TGI (HT29 colon) was > 100 µM and the GI50 (M14 melanoma) was 3.01 µM. For the same molecule, the TGI (M14 melanoma) was > 100 µM, the GI50 (HL-60(TB) leukemia) was 2.3 µM and the TGI (HL-60(TB) leukemia) was 7.66 µM. For the same molecule, the GI50 (CAKI-1 renal) was 2.16 µM, the TGI (CAKI-1 renal) was > 100 µM and the GI50 (HOP-62 NSCLC) was 3.15 µM. The TGI (HOP-62 NSCLC) was > 100 µM, the GI50 (EKVX NSCLC) was 3.47 µM and the TGI (EKVX NSCLC) was > 100 µM. The GI50 (NCI-H23 lung) was 3.48 µM, the TGI (NCI-H23 lung) was > 100 µM and the GI50 (OVCAR-4 ovarian) was 2.49 µM. For the same molecule, the TGI (OVCAR-4 ovarian) was > 100 µM, the GI50 (T-47D breast) was 2.21 µM and the TGI (T-47D breast) was 8.73 µM. The GI50 (SK-MEL-5 melanoma) was 1.61 µM, the TGI (SK-MEL-5 melanoma) was 3.65 µM and the GI50 (SK-MEL-28 melanoma) was 2.87 µM. For the same molecule, the TGI (SK-MEL-28 melanoma) was > 100 µM, the GI50 (SK-OV-3 ovarian) was 3.02 µM and the TGI (SK-OV-3 ovarian) was 8.48 µM. For the same molecule, the GI50 (TK-10 renal) was 5.13 µM, the TGI (TK-10 renal) was > 100 µM and the GI50 (IGROV1 ovarian) was 7.48 µM. For the same molecule, the TGI (IGROV1 ovarian) was > 100 µM, the GI50 (UO-31 renal) was 2.31 µM and the TGI (UO-31 renal) was > 100 µM. For the same molecule, the GI50 (UACC-257 melanoma) was 6.5 µM, the TGI (UACC-257 melanoma) was > 100 µM and the GI50 (UACC-62 melanoma) was 2.21 µM. The TGI (UACC-62 melanoma) was > 100 µM, the GI50 (SR leukemia) was 0.668 µM and the TGI (SR leukemia) was > 100 µM. The GI50 (MDA-MB-231 breast) was 6.65 µM, the TGI (MDA-MB-231 breast) was > 100 µM and the GI50 (HCC-2998 colon) was 6.95 µM. The TGI (HCC-2998 colon) was > 100 µM, the GI50 (SF-268 CNS) was 9.1 µM and the TGI (SF-268 CNS) was > 100 µM.
